Data: PubChem BioAssay (NCI)
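Briefly, cells in 96-well plates were exposed to five compound concentrations for 48 h, and endpoints were estimated by linear interpolation. GI50: concentration for 50% inhibition of growth. TGI denotes the concentration required for complete inhibition of growth.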

How the values were obtained:
Assay in all cases: NCI anticancer screen, dose series, 48 h; in the data active means GI50 below about 0.43 µM; inactive means the rest
HS 578T breast = tested on: HS 578T breast
K-562 leukemia = tested on: K-562 leukemia
OVCAR-4 ovarian = tested on: OVCAR-4 ovarian
SW-620 colon = tested on: SW-620 colon
HOP-62 NSCLC = tested on: HOP-62 NSCLC
MALME-3M melanoma = tested on: MALME-3M melanoma
RXF 393 renal = tested on: RXF 393 renal
NCI-H460 lung = tested on: NCI-H460 lung
NCI-H522 lung = tested on: NCI-H522 lung
CCRF-CEM leukemia = tested on: CCRF-CEM leukemia

CC12C=CC(C)(O1)C1C2c2ccccc2S1(=O)=O (stereo not given)
inactive: GI50 (HS 578T breast) 46.2 µM | GI50 (K-562 leukemia) 69.7 µM | GI50 (OVCAR-4 ovarian) 31.6 µM | GI50 (SW-620 colon) 39.9 µM | GI50 (HOP-62 NSCLC) > 100 µM | GI50 (MALME-3M melanoma) 50.3 µM | GI50 (RXF 393 renal) 0.637 µM | GI50 (NCI-H460 lung) > 100 µM | GI50 (NCI-H522 lung) 33.6 µM | GI50 (CCRF-CEM leukemia) 28.2 µM
> 100 µM: TGI (HS 578T breast) | TGI (K-562 leukemia) | TGI (OVCAR-4 ovarian) | TGI (SW-620 colon) | TGI (HOP-62 NSCLC) | TGI (MALME-3M melanoma) | TGI (NCI-H460 lung) | TGI (NCI-H522 lung) | TGI (CCRF-CEM leukemia)
36.9 µM: TGI (RXF 393 renal)

COc1ccc(N2CCN(CC(=O)N3CCN(c4nnc(-c5ccccc5)c(-c5ccccc5)n4)CC3)CC2)cc1
> 61.2 µM: TGI (RXF 393 renal)
> 73.2 µM: TGI (NCI-H522 lung)
> 100 µM: TGI (HS 578T breast) | TGI (K-562 leukemia) | TGI (OVCAR-4 ovarian) | TGI (SW-620 colon) | TGI (HOP-62 NSCLC) | TGI (MALME-3M melanoma) | TGI (NCI-H460 lung) | TGI (CCRF-CEM leukemia)
inactive: GI50 (HS 578T breast) 9.46 µM | GI50 (K-562 leukemia) 5.6 µM | GI50 (OVCAR-4 ovarian) 3.61 µM | GI50 (SW-620 colon) 10.4 µM | GI50 (HOP-62 NSCLC) > 67.4 µM | GI50 (MALME-3M melanoma) 6.82 µM | GI50 (RXF 393 renal) 7.88 µM | GI50 (NCI-H460 lung) 5.96 µM | GI50 (NCI-H522 lung) 19.1 µM | GI50 (CCRF-CEM leukemia) 6.61 µM

COC(=O)Nc1nc2c(OC)c(OC)c(OC)cc2[nH]1
> 92.3 µM: TGI (HS 578T breast)
inactive: GI50 (HS 578T breast) 30 µM | GI50 (K-562 leukemia) 5.43 µM | GI50 (OVCAR-4 ovarian) 64.2 µM | GI50 (SW-620 colon) 5.8 µM | GI50 (HOP-62 NSCLC) 33.5 µM | GI50 (MALME-3M melanoma) 16.4 µM | GI50 (RXF 393 renal) 18.4 µM | GI50 (NCI-H460 lung) 14.6 µM | GI50 (NCI-H522 lung) 13.3 µM | GI50 (CCRF-CEM leukemia) 25.4 µM
> 100 µM: TGI (K-562 leukemia) | TGI (OVCAR-4 ovarian) | TGI (SW-620 colon) | TGI (HOP-62 NSCLC) | TGI (MALME-3M melanoma) | TGI (NCI-H460 lung) | TGI (CCRF-CEM leukemia)
58.1 µM: TGI (NCI-H522 lung)
66 µM: TGI (RXF 393 renal)

Cc1cc(C)cc(Nc2nccc(-c3c(-c4ccc(F)cc4)ncn3C3CCNCC3)n2)c1
2.92 µM: TGI (RXF 393 renal)
5.97 µM: TGI (CCRF-CEM leukemia)
2.77 µM: TGI (NCI-H460 lung)
3.95 µM: TGI (HOP-62 NSCLC)
3.07 µM: TGI (SW-620 colon)
inactive: GI50 (HS 578T breast) 1.96 µM | GI50 (K-562 leukemia) 1.03 µM | GI50 (OVCAR-4 ovarian) 1.49 µM | GI50 (SW-620 colon) 1.44 µM | GI50 (HOP-62 NSCLC) 2.04 µM | GI50 (MALME-3M melanoma) 1.61 µM | GI50 (RXF 393 renal) 1.39 µM | GI50 (NCI-H460 lung) 1.27 µM | GI50 (NCI-H522 lung) 1.5 µM | GI50 (CCRF-CEM leukemia) 1.92 µM
3.39 µM: TGI (MALME-3M melanoma)
3.46 µM: TGI (OVCAR-4 ovarian)
3.59 µM: TGI (K-562 leukemia)
3.45 µM: TGI (NCI-H522 lung)
4.36 µM: TGI (HS 578T breast)
